Key:
Assay type in all cases: in vivo
[1] = tested on: spring wheat (Triticum aestivum); test: Test C pre-/postemergence plant response; settings: Preemergence
From the text: (§1) Seeds of plant species selected from annual bluegrass (Poa annua), blackgrass (Alopecurus myosuroides), canola (Brassica rapa), downy bromegrass (Bromus tectorum), green foxtail (Setaria viridis), Italian ryegrass (Lolium multiflorum), canarygrass (Phalaris minor), pigweed (Amaranthus retroflexus), spring barley (Hordeum vulgare), spring wheat (Triticum aestivum), wild mustard (Sinapis arvensis), wild oat (Avena fatua), windgrass (Apera spica-venti), winter barley (Hordeum vulgare), and winter wheat (Triticum aestivum) were planted and treated preemergence with test chemicals formulated in a non-phytotoxic solvent mixture which included a surfactant. At the same time, plants selected from these crop and weed species were treated with postemergence applications of some of the test chemicals formulated in the same manner. Plants ranged in height from 2 to 18 cm (1- to 4-leaf stage) for postemergence treatments.
(§2) Treated plants and controls were maintained in a controlled growth environment for 15 to 25 days after which time all species were compared to controls and visually evaluated. Plant response ratings, summarized in Table C, are based on a scale of 0 to 100 where 0 is no effect and 100 is complete control. A dash (-) response means no test result.

[2] = tested on: spring barley (Hordeum vulgare); test: Test C pre-/postemergence plant response; settings: Preemergence
From the text: as §1, §2

[3] = tested on: canarygrass (Phalaris minor); test: Test C pre-/postemergence plant response; settings: Preemergence
From the text: as §1, §2

[4] = tested on: pigweed (Amaranthus retroflexus); test: Test C pre-/postemergence plant response; settings: Preemergence
From the text: as §1, §2

[5] = tested on: winter barley (Hordeum vulgare); test: Test C pre-/postemergence plant response; settings: Preemergence
From the text: as §1, §2

[6] = tested on: green foxtail (Setaria viridis); test: Test C pre-/postemergence plant response; settings: Preemergence
From the text: as §1, §2

wild oat (Avena fatua) = test: Test C pre-/postemergence plant response; settings: Preemergence
From the text: as §1, §2

[7] = tested on: annual bluegrass (Poa annua); test: Test C pre-/postemergence plant response; settings: Preemergence
From the text: as §1, §2

[8] = tested on: windgrass (Apera spica-venti); test: Test C pre-/postemergence plant response; settings: Preemergence
From the text: as §1, §2

[9] = tested on: Italian ryegrass (Lolium multiflorum); test: Test C pre-/postemergence plant response; settings: Preemergence
From the text: as §1, §2

[10] = tested on: blackgrass (Alopecurus myosuroides); test: Test C pre-/postemergence plant response; settings: Preemergence
From the text: as §1, §2

[11] = tested on: wild mustard (Sinapis arvensis); test: Test C pre-/postemergence plant response; settings: Preemergence
From the text: as §1, §2

[12] = tested on: winter wheat (Triticum aestivum); test: Test C pre-/postemergence plant response; settings: Preemergence
From the text: as §1, §2

[13] = tested on: downy bromegrass (Bromus tectorum); test: Test C pre-/postemergence plant response; settings: Preemergence
From the text: as §1, §2

corn (Zea mays) = test: Test A pre-/postemergence plant response
Procedure, shortened: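 Seeds in loam soil/sand blend treated preemergence by directed soil spray, with simultaneous postemergence spray on 2–10 cm plants at one- to two-leaf stage; compounds in non-phytotoxic solvent with surfactant. Injury visually rated versus untreated controls after about 10 days in greenhouse, 0 (no effect) to 100 (complete control).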

[14] = 8 g ai/ha, scale 0 to 100 (0 no effect, 100 complete control)
[15] = 16 g ai/ha, scale 0 to 100 (0 no effect, 100 complete control)
[16] = 31 g ai/ha, scale 0 to 100 (0 no effect, 100 complete control)
[17] = 62 g ai/ha, scale 0 to 100, 0 no effect, 100 complete control
[18] = Postemergence, 31 g ai/ha, 0 to 100 scale, 0 no effect, 100 complete control
[19] = Postemergence, 125 g ai/ha, 0 to 100 scale, 0 no effect, 100 complete control
[20] = Preemergence, 31 g ai/ha, 0 to 100 scale, 0 is no effect, 100 is complete control
[21] = Preemergence, 125 g ai/ha, 0 to 100 scale (0 no effect, 100 complete control)

Cc1cc(-c2ccc(Cl)cc2)nn1-c1c(OC(=O)c2cccc(Cl)c2)cnn(C)c1=O [Compound 32]
Plant response rating, Wheat, Spring [1, 14]: 0 | Plant response rating, Wheat, Spring [1, 15]: 25 | Plant response rating, Wheat, Spring [1, 16]: 60 | Plant response rating, Wheat, Spring [1, 17]: 98 | Plant response rating, Barley, Spring [2, 14]: 0 | Plant response rating, Barley, Spring [2, 15]: 0 | Plant response rating, Barley, Spring [2, 16]: 25 | Plant response rating, Barley, Spring [2, 17]: 75 | Plant response rating, Canarygrass [3, 14]: 0 | Plant response rating, Canarygrass [3, 15]: 0 | Plant response rating, Canarygrass [3, 16]: 75 | Plant response rating, Canarygrass [3, 17]: 90 | Plant response rating, Pigweed [4, 14]: 0 | Plant response rating, Pigweed [4, 15]: 0 | Plant response rating, Pigweed [4, 16]: 0 | Plant response rating, Pigweed [4, 17]: 0 | Plant response rating, Barley, Winter [5, 14]: 0 | Plant response rating, Barley, Winter [5, 15]: 0 | Plant response rating, Barley, Winter [5, 16]: 20 | Plant response rating, Barley, Winter [5, 17]: 65 | Plant response rating, Foxtail, Green [6, 14]: 40 | Plant response rating, Foxtail, Green [6, 15]: 75 | Plant response rating, Foxtail, Green [6, 16]: 100 | Plant response rating, Foxtail, Green [6, 17]: 100 | Plant response rating, Oat, Wild (wild oat (Avena fatua); [14]): 0 | Plant response rating, Oat, Wild (wild oat (Avena fatua); [15]): 10 | Plant response rating, Oat, Wild (wild oat (Avena fatua); [16]): 65 | Plant response rating, Oat, Wild (wild oat (Avena fatua); [17]): 70 | Plant response rating, Bluegrass [7, 14]: 0 | Plant response rating, Bluegrass [7, 15]: 0 | Plant response rating, Bluegrass [7, 16]: 0 | Plant response rating, Bluegrass [7, 17]: 20 | Plant response rating, Windgrass [8, 14]: 0 | Plant response rating, Windgrass [8, 15]: 0 | Plant response rating, Windgrass [8, 16]: 0 | Plant response rating, Windgrass [8, 17]: 75 | Plant response rating, Ryegrass, Italian [9, 14]: 0 | Plant response rating, Ryegrass, Italian [9, 15]: 20 | Plant response rating, Ryegrass, Italian [9, 17]: 75 | Plant response rating, Blackgrass [10, 16]: 75 | Plant response rating, Blackgrass [10, 17]: 98 | Plant response rating, Mustard, Wild [11, 14]: 0 | Plant response rating, Mustard, Wild [11, 15]: 0 | Plant response rating, Mustard, Wild [11, 16]: 0 | Plant response rating, Wheat, Winter [12, 14]: 0 | Plant response rating, Wheat, Winter [12, 15]: 20 | Plant response rating, Wheat, Winter [12, 16]: 35 | Plant response rating, Wheat, Winter [12, 17]: 65 | Plant response rating, Bromegrass, Downy [13, 14]: 0 | Plant response rating, Bromegrass, Downy [13, 15]: 20 | Plant response rating, Bromegrass, Downy [13, 16]: 20 | Plant response rating, Bromegrass, Downy [13, 17]: 60 | Plant response rating, Corn (corn (Zea mays); [18]): 0 | Plant response rating, Corn (corn (Zea mays); [19]): 50 | Plant response rating, Corn (corn (Zea mays); [20]): 0 | Plant response rating, Corn (corn (Zea mays); [21]): 60

Cc1cc(-c2ccc(Cl)cc2)nn1-c1c(OS(=O)(=O)c2ccccc2)cnn(C)c1=O [Compound 35]
Plant response rating, Wheat, Spring [1, 14]: 0 | Plant response rating, Wheat, Spring [1, 15]: 20 | Plant response rating, Wheat, Spring [1, 16]: 50 | Plant response rating, Wheat, Spring [1, 17]: 65 | Plant response rating, Barley, Spring [2, 14]: 0 | Plant response rating, Barley, Spring [2, 15]: 0 | Plant response rating, Barley, Spring [2, 16]: 20 | Plant response rating, Barley, Spring [2, 17]: 65 | Plant response rating, Canarygrass [3, 14]: 0 | Plant response rating, Canarygrass [3, 15]: 0 | Plant response rating, Canarygrass [3, 16]: 50 | Plant response rating, Canarygrass [3, 17]: 90 | Plant response rating, Pigweed [4, 14]: 0 | Plant response rating, Pigweed [4, 16]: 0 | Plant response rating, Pigweed [4, 17]: 0 | Plant response rating, Barley, Winter [5, 14]: 0 | Plant response rating, Barley, Winter [5, 16]: 0 | Plant response rating, Barley, Winter [5, 17]: 50 | Plant response rating, Foxtail, Green [6, 14]: 15 | Plant response rating, Foxtail, Green [6, 16]: 40 | Plant response rating, Foxtail, Green [6, 17]: 100 | Plant response rating, Oat, Wild (wild oat (Avena fatua); [14]): 0 | Plant response rating, Oat, Wild (wild oat (Avena fatua); [15]): 0 | Plant response rating, Oat, Wild (wild oat (Avena fatua); [16]): 30 | Plant response rating, Oat, Wild (wild oat (Avena fatua); [17]): 70 | Plant response rating, Bluegrass [7, 14]: 0 | Plant response rating, Bluegrass [7, 15]: 0 | Plant response rating, Bluegrass [7, 16]: 0 | Plant response rating, Bluegrass [7, 17]: 0 | Plant response rating, Windgrass [8, 14]: 0 | Plant response rating, Windgrass [8, 16]: 15 | Plant response rating, Windgrass [8, 17]: 80 | Plant response rating, Ryegrass, Italian [9, 14]: 0 | Plant response rating, Ryegrass, Italian [9, 15]: 35 | Plant response rating, Ryegrass, Italian [9, 16]: 98 | Plant response rating, Ryegrass, Italian [9, 17]: 100 | Plant response rating, Blackgrass [10, 14]: 0 | Plant response rating, Blackgrass [10, 15]: 30 | Plant response rating, Blackgrass [10, 16]: 75 | Plant response rating, Blackgrass [10, 17]: 75 | Plant response rating, Mustard, Wild [11, 16]: 0 | Plant response rating, Mustard, Wild [11, 17]: 0 | Plant response rating, Wheat, Winter [12, 14]: 0 | Plant response rating, Wheat, Winter [12, 15]: 10 | Plant response rating, Wheat, Winter [12, 16]: 25 | Plant response rating, Wheat, Winter [12, 17]: 70 | Plant response rating, Bromegrass, Downy [13, 14]: 0 | Plant response rating, Bromegrass, Downy [13, 15]: 0 | Plant response rating, Bromegrass, Downy [13, 16]: 50 | Plant response rating, Bromegrass, Downy [13, 17]: 60 | Plant response rating, Corn (corn (Zea mays); [18]): 0 | Plant response rating, Corn (corn (Zea mays); [19]): 60 | Plant response rating, Corn (corn (Zea mays); [20]): 0 | Plant response rating, Corn (corn (Zea mays); [21]): 80

Source: patent US20100267561A1, “HERBICIDAL PYRIDAZINONE DERIVATIVES” (priority 2007, published 2010)
